Experimental data from ChEMBL document CHEMBL1201862, “PubChem BioAssay data set” (2004).
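A five-concentration, 48-hour dose response in 96-well plates underlies each endpoint, interpolated linearly between surrounding concentrations. GI50 = concentration required for 50% inhibition of growth.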 Calls of active or inactive are those of the source. No stated cut-off is given here; in the data, active = GI50 up to about 1.1 µM and inactive = higher.

Tests used:
Experiment in all cases: growth of human tumour cells (NCI), 48 h
OVCAR-3 = system: OVCAR-3
COLO 205 = system: COLO 205
HL-60 = system: HL-60
NCI-H522 = system: NCI-H522
SF-539 = system: SF-539
A549 = system: A549
LOX IMVI = system: LOX IMVI
SN12C = system: SN12C
NCI-H23 = system: NCI-H23
OVCAR-4 = system: OVCAR-4
SK-MEL-2 = system: SK-MEL-2
OVCAR-8 = system: OVCAR-8
A498 = system: A498
CCRF-CEM = system: CCRF-CEM
RPMI-8226 = system: RPMI-8226
UACC-257 = system: UACC-257
SW-620 = system: SW-620
NCI-H226 = system: NCI-H226
MDA-MB-435 = system: MDA-MB-435
RXF 393 = system: RXF 393

SMILES	GI50 (OVCAR-3)	GI50 (COLO 205)	GI50 (HL-60)	GI50 (NCI-H522)	GI50 (SF-539)	GI50 (A549)	GI50 (LOX IMVI)	GI50 (SN12C)	GI50 (NCI-H23)	GI50 (OVCAR-4)	GI50 (SK-MEL-2)	GI50 (OVCAR-8)	GI50 (A498)	GI50 (CCRF-CEM)	GI50 (RPMI-8226)	GI50 (UACC-257)	GI50 (SW-620)	GI50 (NCI-H226)	GI50 (MDA-MB-435)	GI50 (RXF 393)
COc1ccc(C2SCC(=O)N2c2ccc(-n3c(-c4ccccc4)nc4ccccc4c3=O)cc2)cc1 (configuration not stated)	> 100 µM (inactive)	> 100 µM (inactive)	> 100 µM (inactive)	36.4 µM (inactive)	> 100 µM (inactive)	> 100 µM (inactive)	> 100 µM (inactive)	> 100 µM (inactive)	> 100 µM (inactive)	> 100 µM (inactive)	6.95 µM (inactive)	> 100 µM (inactive)	> 100 µM (inactive)	> 100 µM (inactive)	> 100 µM (inactive)	> 100 µM (inactive)	> 100 µM (inactive)	> 100 µM (inactive)	> 100 µM (inactive)	–
[N-]=[N+]=NC1=C(N=[N+]=[N-])c2cccc3cccc(c23)C1=O	> 100 µM (inactive)	> 100 µM (inactive)	–	> 100 µM (inactive)	> 100 µM (inactive)	> 100 µM (inactive)	> 100 µM (inactive)	> 100 µM (inactive)	> 100 µM (inactive)	> 100 µM (inactive)	> 100 µM (inactive)	> 100 µM (inactive)	> 100 µM (inactive)	67.9 µM (inactive)	> 100 µM (inactive)	> 100 µM (inactive)	57.7 µM (inactive)	> 100 µM (inactive)	> 100 µM (inactive)	65.6 µM (inactive)
Clc1ccccc1-c1nnc2c(-c3ccccc3)nc3ccccc3n12	> 100 µM (inactive)	> 100 µM (inactive)	54.5 µM (inactive)	–	> 100 µM (inactive)	> 100 µM (inactive)	> 100 µM (inactive)	> 100 µM (inactive)	> 100 µM (inactive)	> 100 µM (inactive)	> 100 µM (inactive)	–	> 100 µM (inactive)	26 µM (inactive)	> 100 µM (inactive)	> 100 µM (inactive)	> 100 µM (inactive)	> 100 µM (inactive)	52.7 µM (inactive)	13 µM (inactive)
O=C(Nc1nncs1)NS(=O)(=O)n1c(=S)sc2ccccc21	> 100 µM (inactive)	> 100 µM (inactive)	51.9 µM (inactive)	48.1 µM (inactive)	> 100 µM (inactive)	> 100 µM (inactive)	> 100 µM (inactive)	> 100 µM (inactive)	> 100 µM (inactive)	> 100 µM (inactive)	> 100 µM (inactive)	> 100 µM (inactive)	> 100 µM (inactive)	24.9 µM (inactive)	> 100 µM (inactive)	> 100 µM (inactive)	> 100 µM (inactive)	–	> 100 µM (inactive)	> 100 µM (inactive)
CCNC(=S)Nc1c(C#N)c2n(c1C(=O)OCC)CCCCC2	–	> 100 µM (inactive)	> 100 µM (inactive)	–	64.7 µM (inactive)	–	> 100 µM (inactive)	–	69 µM (inactive)	> 100 µM (inactive)	> 100 µM (inactive)	> 100 µM (inactive)	> 100 µM (inactive)	> 100 µM (inactive)	71.3 µM (inactive)	> 100 µM (inactive)	> 100 µM (inactive)	> 100 µM (inactive)	> 100 µM (inactive)	33.1 µM (inactive)
CC(=O)/C(=C\I)c1ccccc1	1.7 µM (inactive)	1.71 µM (inactive)	1.08 µM (active)	–	18 µM (inactive)	15.7 µM (inactive)	1.67 µM (inactive)	1.99 µM (inactive)	2.23 µM (inactive)	–	2.6 µM (inactive)	1.82 µM (inactive)	17.7 µM (inactive)	1.97 µM (inactive)	2.03 µM (inactive)	3.04 µM (inactive)	1.3 µM (inactive)	21.2 µM (inactive)	3.86 µM (inactive)	1.66 µM (inactive)
O=c1c2ccc(Cl)cc2oc2c(CNc3ccc(S(=O)(=O)Nc4ncccn4)cc3)cccc12	> 100 µM (inactive)	> 100 µM (inactive)	> 100 µM (inactive)	> 100 µM (inactive)	94.4 µM (inactive)	> 100 µM (inactive)	> 100 µM (inactive)	> 100 µM (inactive)	> 100 µM (inactive)	> 100 µM (inactive)	> 100 µM (inactive)	> 100 µM (inactive)	> 100 µM (inactive)	> 100 µM (inactive)	> 100 µM (inactive)	> 100 µM (inactive)	> 100 µM (inactive)	> 100 µM (inactive)	> 100 µM (inactive)	–
CCOn1c(C2(CC3CCN(C(=O)c4ccccc4)CC3)OCCO2)cc2ccccc21	16.4 µM (inactive)	16.4 µM (inactive)	–	19.3 µM (inactive)	18.7 µM (inactive)	16.9 µM (inactive)	15.7 µM (inactive)	17.2 µM (inactive)	19.5 µM (inactive)	15.2 µM (inactive)	16.8 µM (inactive)	14.3 µM (inactive)	12.9 µM (inactive)	12.6 µM (inactive)	8.51 µM (inactive)	11.1 µM (inactive)	15.8 µM (inactive)	0.084 µM (active)	14.3 µM (inactive)	17.4 µM (inactive)
